According to patent US9572831B2, “Composition and method for sulfated non-anticoagulant low molecular weight heparins in cancer and tumor metastasis” (priority 2013, dated 2017):

How the values were obtained:
MPanc96-luc cells [1] = experiment: CAM cancer implant model, MPanc96; format: in vivo, chick embryo; conditions: 1.0 ug/CAM
Experimental: The CAM cancer implant model was used in conjunction with the present invention to study the effect of heparin derivatives (S-NACH versus tinzaparin) along with gemcitabine at 1.0 μg/CAM on tumor angiogenesis and tumor growth. MPanc96-luc cells in exponential growth phase were harvested as described above. One×10^6 cells in 30 μl of medium were mixed with an equal volume of Matrigel and implanted in the chick Chorioallantoic membrane (CAM) model of 7-day old chick eggs. The effect of these treatments was determined after 8 days of implantation. Results are presented as a mean tumor weight (g) per treatment group and tumor hemoglobin (mg/dl)±SEM, n=10 per group. For the Matrigel portions of the models, tumor angiogenesis is evaluated with tumor weight analysis and Drabkin's Assay for hemoglobin concentration (angiogenesis index). PBS was used as a negative control while breast cancer cells were used as a positive control and to initiate tumorigenesis. The tumor cells were MCF-7/DXR (human breast adenocarcinoma), and 1-2 million cells per CAM were used. […] By re-weighing the tubes with the tumor inside, the weight of the tumor itself could be recorded. […] Specimens were centrifuged, and the hemoglobin content was measured using Drabkin's reagent (Sigma, St Louis, Mo.), run in duplicate using the supernatant. […]

MPanc96-luc cells [2] = format: in vivo, athymic nude mice; conditions: S-NACH 20 mg/kg, tinzaparin 5 mg/kg
Experimental: MPanc96-luc cells were harvested as described above and were orthotopically implanted (2×10^5 cells in 50 μl PBS per mouse) in the pancreas of anesthetized athymic nude mice. Just before treatment initiation, animals (n=10 per group) were randomized by tumor mass detected by an in vivo imaging system (IVIS, described below). Heparin derivatives S-NACH at 20 mg/kg and tinzaparin at 5 mg/kg were administered subcutaneously daily. Gemcitabine at 100 mg/kg was injected intraperitoneally twice a week alone or in combination with either S-NACH or tinzaparin. All mice used for treatment response evaluations were euthanized after 28 days. See Table 2 for the protocol of the study. Imaging was performed once per week to monitor tumor growth. Mice bearing MPanc96-luc tumors were anaesthetized using isoflurane, injected subcutaneously with 50 μl D-luciferin (30 mg/ml), then imaged. Photographic and luminescence images were taken at constant exposure time. Xenogen IVIS® Living Image software version 3.2 was used to quantify non-saturated bioluminescence in regions of interest. Light emission between 5.5×10^6-7.0×10^10 photons was assumed to be indicative of viable luciferase-labeled tumor cells while emissions below this range were considered as background. Bioluminescence was quantified as photons/second for each region of interest. In vivo tumor kinetic growth and metastasis were monitored by signal intensity. Ex vivo imaging was performed to confirm the signal intensity in the tumors after the termination. All specimens were analyzed by histology for routine analysis. Specimens were fixed in 10% buffered formalin, processed routinely, and embedded in paraffin. Then, after fixation, the specimens were transferred into the embedding chambers to hold the specimens in position until the paraffin became solid to prevent further rotation. Four μm serial sections were cut, and then stained using haematoxylin and eosin. Sections were evaluated for various pathologic parameters using a light microscope (Leica, Buffalo Grove, Ill.).

Mpanc96-luc cancer cells = experiment: Liver metastasis and recurrence after excision of pancreatic cancer; format: in vivo; conditions: experiment and dose not stated at the place
From the text: Different groups of mice received either saline (control), LMWH, SNACH or S-SNACH, followed by injection of luciferase transfected pancreatic cancer cells into the mouse spleen. The treatment continued daily for two weeks. IVIS imaging was done once a week to measure the metastatic load to various organs. The tumor burden measurements were based on the bioluminescence signal intensity of the pancreatic cancer cells. The second experiment was intended to study the effect of the compounds (LMWH, SNACH, and S-SNACH) on metastasis after tumor excision surgery. Pancreatic Mpanc96 cells were injected into the tail of the pancreas and one week later animals were randomized into different groups. One group received saline and another group received LMWH, SNACH, and S-SNACH at 30 minutes before resection of the pancreatic tumor, followed by daily treatment for 3 weeks. Tumor metastasis was evaluated by IVIS imagining. A bleeding time experiment was done to evaluate the relative effect on bleeding time. […] Tumor luminescent signal intensity, weight, and histopathology were assessed at the termination of the study.
Mice were randomly distributed into control and treatment groups, averaging 10 mice in each group. […] The spread of cancer cells was monitored using IVIS imaging once per week, and at the end of the 3 week treatment period the mice were euthanized.

[3] = Bleeding time (tail transection); format: in vivo, mice; conditions: dose not stated; vs control
Experimental: Bleeding time in mice was tested during the period of receiving test compounds. Mice were anesthetized with isoflurane inhalation. By using a scalpel, 0.5 cm of the distal end of the tail was transected, and the remaining length of tail was immersed immediately into a 37° C. solution of saline. Bleeding time was measured from the time of tail transection until visible bleeding could no longer be detected. The experiment was repeated 3 times with different groups and concentrations.

[4] = test system: MCF7 DOX resistant cancer cells; experiment: Orthotopic implant of MCF7 DOX resistant cells in nude mice; format: in vivo; conditions: 10 mg/Kg, SC daily for 15 days, vs control
Experimental: Immune-deficient female NCr nude homozygous mice aged 5-6 weeks weighing 18-20 g were purchased from Harlan Laboratories (Indianapolis, Ind.). All animal studies were conducted in accordance with the institutional guidelines for humane animal treatment. Mice were maintained under specific pathogen-free conditions and housed under controlled conditions of temperature (20-24° C.), humidity (60-70%), and 12 h light/dark cycle with ad libitum access to water and food. Mice were allowed to acclimatize for 5 days prior to the start of study.
Orthotopic implant of 0.5 million of MCF7 DOX resistant cancer cells in nude mice result in progressive rapid tumor growth approaching 150 mm3 after 5 days of implant.

tinzaparin
tumor growth or tumor angiogenesis (MPanc96-luc cells [1]): maximally inhibited | tumor necrosis (histology) (MPanc96-luc cells [2]): modest increase in necrotic area | tumor recurrence after surgical excision (Mpanc96-luc cancer cells): not | bleeding time [3]: extended the bleeding significantly | tumor growth progression [4]: halting tumor growth progression
